Consider 4 compounds from patent publication US20250296922A1, “POLYSUBSTITUTED PYRROLIDINE DERIVATIVE, PREPARATION METHOD THEREFOR AND USE THEREOF” (SHANGHAI WENNAI THERAPEUTICS CO LTD, priority 2023, published 2025).

One data set has as its target CYP3A-M (Homo sapiens, UniProt P08684). Description: Human liver microsomal CYP inhibition test, CYP3A-M (midazolam). The data set is classed as in vitro ADME. The following applies: human liver microsomes 0.2 mg/mL; substrate Midazolam. The procedure:
(§1) 3.1 Buffer solutions: (1) potassium phosphate 100 mM; (2) magnesium chloride, 33 mM;
(§2) 3.2.3 Reservoir for compounds to be tested: Dissolving the compounds to be tested in DMSO to form a 10 mM DMSO solution.
(§3) 3.4.1 Preparation of human liver microsomal working solution (1.27×) (final concentration: 0.2 mg/mL)
(§4) 3.5.3 Adding 20 μL of substrate solution to the appropriate wells and 20 μL of potassium phosphate buffer to the blank wells;
(§5) 3.5.4 Adding 2 μL of different concentrations of target compounds (final concentrations from 0.05 μM to 50 μM, 7 concentrations in total) or standard inhibitors to each well, with 2 μL of methanol solution in the non-inhibitor and blank wells;
(§6) 3.5.5 Adding 1.012 mL of liver microsomes to 78.988 mL of potassium phosphate buffer, then adding 158 μL of liver microsomes solution to all wells; preheating the well plate for 10 minutes in a 37° C. water bath;
(§7) 3.5.6 Weighing 129.1 mg NADPH (purchased from SyncoZymes Co. Ltd.) and adding to 15.0 mL of 33 Mm MgCl2 solution to give a 10 mM concentration, adding 20 μL to each well;
(§8) 3.5.7 Mixing and incubating the well plate in a 37° C. water bath for 10 minutes, then adding 400 μL of cold termination solution at the appropriate time point;
(§9) 3.5.8 Centrifuging the sample at 4000 rpm for 20 minutes to precipitate the protein. Transferring 200 μL of supernatant to 100 μL of HPLC water and shaking for 10 minutes. The samples were analyzed by LC/MS/MS;
(§10) Percentage inhibition was plotted for blank control and different concentrations of target compounds by using XL fitting or SigmaPlot and the data were analyzed by non-linear regression. IC50 values were determined by using either 3-parameter or 4-parameter logistic equations.
A general note: Liver microsomes are a subcellular fraction often used to study metabolism.

Data set [1] in a line: Pharmacokinetic experiment, rat test, gavage administration. The data set is classed as in vivo, SD rats. To be noted: 10 mg/kg; for AUC(0-t) / Cmax: Sprague-Dawley, rat, plasma, po; for AUC(0-t): read-out: Area under the curve AUC0-t; for Cmax: read-out: blood concentration Cmax. From the text:
4.1.1 Abstract: SD rats were used as test animals, the LC/MS/MS method was applied to determine the drug concentration of the compounds of the Examples in plasma at different points after gavage administration to rats, to study the pharmacokinetic behavior of the compounds of the present invention in rats, and to evaluate their pharmacokinetic characteristics.
4.1.2.2 Test animals: 6 male SD rats and 6 female rats, all provided by Shanghai Jihui Laboratory Animal Breeding Co. The animals were fasted for at least 12 hours before administration and food supply was resumed 4 hours after administration.
4.1.2.3 Drug Preparation: Weighed an amount of the test compound separately and prepared a completely clear solution with a final concentration of 1 mg/mL using a mixed solvent of DMSO: Solutol: Saline (5%: 5%: 90%).
4.1.2.4 Administration: a dose of 10 mg/kg, a volume of 10 mL/kg.
4.1.3 Test operation: 0.1 mL blood samples were collected from the orbit before and 15 min, 30 min, 1 h, 2h, 4 h, 6h, 8 h, 10h, 24 h after the administration of the drug to male rats and placed in EDTA-K2 anticoagulant tubes. 0.03 mL blood samples were collected from the orbit before and 0.5h, 1 h, 2h, 3 h, 6h, 10 h and 24 h after administration to female rats. After blood samples were collected, they were placed in labelled centrifuge tubes in ice-water bath and rapidly centrifuged to separate the plasma at 4000 rpm for 10 min at 4° C. The plasma was stored at −70° C. or below for measurement.
The plasma samples were thawed at room temperature and 50 μL was added to 400 μL of acetonitrile containing the internal standard (40 ng/mL, terfenadine), vortexed for 1 min and centrifuged for 10 min at 4° C. and 15,400 g. 1 μL of the supernatant was injected for analysis.

Data set [2] is described as follows: Proportion of free drug in human plasma, equilibrium dialysis. The following applies: 2 μM compound, dialysis 4 h, 37° C. The data set is classed as in vitro ADME. The protocol:
On the day of the experiment, human plasma samples (purchased from Biomex) were thawed under running tap water and centrifuged at 3220 g for 5 min to remove blood clots. The pH of the resulting plasma was measured and adjusted to pH 7.4+0.1 by using 1% phosphoric acid or 1 N sodium hydroxide as required.
Pretreating the dialysis membranes according to the manufacturer's instructions: The dialysis membrane strips were soaked in ultrapure water at room temperature for approximately 1 hour. Afterwards, each membrane strip containing 2 layers of membrane was separated and soaked in ethanol: water (20:80 v: v) for approximately 20 minutes, then it was ready for use or stored at 2-8° C. (stored for up to 1 month). The membranes were rinsed and soaked in ultrapure water for 20 min before experiments.
A 10 mM DMSO solution of test compound or control warfarin was taken and diluted to 400 μM with DMSO, then 3 μl was taken and added to 597 μl of blank plasma matrix solution to obtain 2 μM of compound solution respectively. 50 μl of test compound solution or control solution was transferred to a sample collection plate with 3 replicate wells per sample. […]
Unbonded %, bonded % and recovered % were calculated using the following formulae. […]
For orientation: Equilibrium dialysis compares concentrations on both sides of a semipermeable membrane.

The target of the next data set is CYP3A (printed CYP3A-M) (Homo sapiens, UniProt P08684). Description: Human liver microsomal CYP inhibition test, CYP3A-M (midazolam). The data set is classed as in vitro ADME. The protocol:
as §1, §2, §3, §4, §5, §6, §7, §8, §9, §10

Read-outs that look alike come from different tables or passages of the source. Some results are limits rather than exact numbers.

CYP3A-M, sequence (P08684 2-503 limits assumed): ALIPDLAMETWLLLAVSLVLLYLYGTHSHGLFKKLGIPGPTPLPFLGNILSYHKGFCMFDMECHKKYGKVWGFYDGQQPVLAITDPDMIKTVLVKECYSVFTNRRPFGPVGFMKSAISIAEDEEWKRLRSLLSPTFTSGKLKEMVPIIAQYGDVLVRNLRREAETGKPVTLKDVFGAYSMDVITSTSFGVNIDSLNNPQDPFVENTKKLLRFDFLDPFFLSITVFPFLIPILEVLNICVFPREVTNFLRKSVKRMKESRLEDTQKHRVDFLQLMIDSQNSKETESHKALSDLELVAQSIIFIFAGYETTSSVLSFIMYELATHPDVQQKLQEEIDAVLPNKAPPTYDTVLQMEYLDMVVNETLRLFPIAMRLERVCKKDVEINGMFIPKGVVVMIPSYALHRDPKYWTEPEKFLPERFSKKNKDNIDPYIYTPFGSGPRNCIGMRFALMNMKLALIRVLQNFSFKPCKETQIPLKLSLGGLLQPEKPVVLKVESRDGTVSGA
CYP3A (printed CYP3A-M), sequence (P08684 2-503 limits assumed): as above

What is called IC50 is the concentration that inhibits the measured activity by half. In the case of “4-((2R,3S,4S,5R)-3-(3,4-difluoro-2-(methoxy-d3)phenyl)-4,5-dimethyl-5-(trifluoromethyl) pyrrolidine-2-carboxamido)pyridinamide [Compound 11]”, at CYP3A-M, the IC50 is greater than 50 µM. For the same compound, in data set [1] (female SD rats), the “Area under the curve AUC0-t” value is 23809 ng·h/mL and the “blood concentration Cmax” value is given as 1850 ng/mL. In data set [1] (male SD rats), the “Area under the curve AUC0-t” value worked out at 4656 ng·h/mL and the “blood concentration Cmax” value came to 1006 ng/mL. For the same compound, in data set [2], the “free drug proportion of in human plasma” value is listed as 1.6%.
`COc1c([C@H]2[C@H](C(=O)Nc3ccc[n+]([O-])c3)N[C@@](C)(C(F)(F)F)[C@H]2C)ccc(F)c1F` [Compound 7, 3-((2R,3S,4S,5R)-3-(3,4-difluoro-2-methoxyphenyl)-4,5-dimethyl-5-(trifluoromethyl)pyrrolidine-2-carboxamido)pyridine 1-oxide]: the IC50 at 10 min on CYP3A (printed CYP3A-M) (probe Midazolam, human liver microsomes 0.2 mg/mL, substrate Midazolam, read-out: IC50 (μM) CYP3A-M) stood at 30.9 µM.
On CYP3A-M, `COc1c([C@H]2[C@H](C(=O)Nc3cccc(S(N)(=O)=O)c3)N[C@@](C)(C(F)(F)F)[C@H]2C)ccc(F)c1F` [Compound 8, (2R,3S,4S,5R)-3-(3,4-difluoro-2-methoxyphenyl)-4,5-dimethyl-aza-(3-aminosulfonylphenyl)-5-(trifluoromethyl) pyrrolidine-2-carboxamide] came in with a 50% inhibitory concentration (IC50) of 26.2 µM.
The compound `COc1c([C@H]2[C@H](C(=O)Nc3ccnc(C(N)=O)c3)O[C@@](C)(C(F)(F)F)[C@H]2C)ccc(F)c1F` [VX-548, reference compound] registered an IC50 at 10 min on CYP3A (printed CYP3A-M) (human, microsomes) greater than 50 µM. Moreover, the AUC(0-t) stood at 10900 ng·h/mL in data set [1] (female SD rats) and 1210 ng·h/mL in data set [1] (male SD rats). The Cmax in data set [1] (female SD rats) amounted to 719 ng/mL; in data set [1] (male SD rats), 385 ng/mL. Moreover, the “free drug proportion of in human plasma” value in data set [2] came to 1.0%.
